According to patent publication US4005076A, “Hydrazones of 3-formylrifamycin SV” (Gruppo Lepetit S.p.A., priority 1971, dated 1977):
Values after ≈ are worked out from the molar mass of the structure shown.

Legend:
[1] = system: Staphylococcus aureus strain which is resistant to rifampicin (Staph. aureus Tour); test: in vitro minimal inhibitory concentration against rifampicin-resistant Staphylococcus aureus strain; type: cell-based; conditions: Staphylococcus aureus, read-out: Minimal inhibitory concentration
Experimental: In particular, compounds illustrative of the invention at concentrations of about 10 to 20 μg/ml or less inhibit the growth of a Staph. aureus Tour strain resistant to rifampicin.
One of the most important characteristics of the new hydrazones is their activity against rifampicin-resistant Staphylococcus aureus strains. Rifampicin, that is 3-(4-methyl-1-piperazinyl)iminomethylrifamycin SV, disclosed in U.S. Pat. No. 3,342,810, is the most known and widely used rifamycin derivative in therapeutic practice.
The data of the new compounds are compared with those of representative hydrazones disclosed in U.S. Pat. No. 3,342,810.

[2] = system: mouse embryo DNA-polymerase I (ME-DNA-P1); test: effect on mouse embryo DNA-polymerase I; type: biochemical; conditions: activated Calf-Thymus DNA
From the text: (§1) Oligo dT.Poly rA. ME-DNA-P1 and ME-DNA-p2 : activated

[3] = system: mouse embryo DNA-polymerase II (ME-DNA-P2); test: effect on mouse embryo DNA-polymerase II; type: biochemical; conditions: activated Calf-Thymus DNA
From the text: as §1

[4] = target: T1, mouse embryo RNA-polymerase II (ME-RNA-P2) (Mus musculus, UniProt P08775+Q8CFI7); test: effect on mouse embryo RNA-polymerase II; type: biochemical; conditions: Single Stranded Calf-Thymus DNA; for remaining activity at 10 µg: 10μg, read-out: % Control Activity of ME-RNA-P2 at 10μg; for remaining activity at 100 µg: 100μg, read-out: % Control Activity of ME-RNA-P2 at 100μg
T1 construct: mouse embryo RNA-polymerase II (ME-RNA-P2); endogenous in cells; host or cells: mouse embryo cells
From the text: (§2) Calf-Thymus DNA. Me-RNA-P1 and ME-RNA-P2 : Single Stranded

[5] = target: T2, sarcoma virus DNA-polymerases (SSV-DNA-P) (Woolly monkey sarcoma virus, UniProt P03359); test: effect on activity of SSV-polymerase; type: biochemical; conditions: template Oligo dT.Poly rA
T2 construct: sarcoma virus DNA-polymerases (SSV-DNA-P)
T2 sequence (P03359 642-1310): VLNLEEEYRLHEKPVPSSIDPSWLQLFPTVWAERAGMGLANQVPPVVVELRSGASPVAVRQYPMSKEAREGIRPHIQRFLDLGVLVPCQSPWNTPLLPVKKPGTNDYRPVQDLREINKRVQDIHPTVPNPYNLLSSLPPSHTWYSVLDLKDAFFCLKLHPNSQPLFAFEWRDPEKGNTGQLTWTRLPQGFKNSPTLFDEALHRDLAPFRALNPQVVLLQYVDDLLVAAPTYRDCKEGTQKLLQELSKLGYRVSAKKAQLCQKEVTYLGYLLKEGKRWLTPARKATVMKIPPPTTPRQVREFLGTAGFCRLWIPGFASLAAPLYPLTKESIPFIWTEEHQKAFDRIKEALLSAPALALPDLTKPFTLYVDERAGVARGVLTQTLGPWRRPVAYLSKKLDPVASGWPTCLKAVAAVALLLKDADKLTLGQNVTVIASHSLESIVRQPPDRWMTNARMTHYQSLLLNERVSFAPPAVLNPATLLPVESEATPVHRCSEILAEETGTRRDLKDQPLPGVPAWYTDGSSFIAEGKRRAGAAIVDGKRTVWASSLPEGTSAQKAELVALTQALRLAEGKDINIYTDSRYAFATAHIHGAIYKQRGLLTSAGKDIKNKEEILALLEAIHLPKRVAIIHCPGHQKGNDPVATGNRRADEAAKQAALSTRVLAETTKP
From the text: Templates used in the Enzymatic Assays were the following: SSV-DNA-P: […]

[6] = target: T3, mouse embryo RNA-polymerase I (ME-RNA-P1) (Mus musculus, UniProt O35134+P70700); test: effect on mouse embryo RNA-polymerase I; type: biochemical; conditions: Single Stranded Calf-Thymus DNA; for remaining activity at 10 µg: 10μg, read-out: % Control Activity of ME-RNA-P1 at 10μg; for remaining activity at 100 µg: 100μg, read-out: % Control Activity of ME-RNA-P1 at 100μg
T3 construct: mouse embryo RNA-polymerase I (ME-RNA-P1); endogenous in cells; host or cells: mouse embryo cells
From the text: as §2

## COC1C=COC2(C)Oc3c(C)c(O)c4c(O)c(c(C=NNc5ccnc6c(C(F)(F)F)cccc56)c(O)c4c3C2=O)NC(=O)C(C)=CC=CC(C)C(O)C(C)C(O)C(C)C(OC(C)=O)C1C (stereo not shown) [Example 22]
[1]
  MIC: 50 µg/mL (≈ 53.5 µM)

## COC1C=COC2(C)Oc3c(C)c(O)c4c(O)c(c(C=NNc5ccccc5C)c(O)c4c3C2=O)NC(=O)C(C)=CC=CC(C)C(O)C(C)C(O)C(C)C(OC(C)=O)C1C (stereo not shown) [Example 38]
[1]
  MIC: 20 µg/mL (≈ 24.1 µM)

## COC1C=COC2(C)Oc3c(C)c(O)c4c(O)c(c(C=NNc5cccc(C(F)(F)F)c5)c(O)c4c3C2=O)NC(=O)C(C)=CC=CC(C)C(O)C(C)C(O)C(C)C(OC(C)=O)C1C (stereo not shown) [Example 43, 3-Formylrifamycin SV: hydrazone of ((3-trifluoromethyl)-phenyl) hydrazine]
[1]
  MIC: 10 µg/mL (≈ 11.3 µM)

## CCN(CC)N=Cc1c2c(O)c3c(O)c(C)c4c(c3c1O)C(=O)C(C)(OC=CC(OC)C(C)C(OC(C)=O)C(C)C(O)C(C)C(O)C(C)C=CC=C(C)C(=O)N2)O4 (stereo not shown) [N,N-Diethylhydrazone of 3-formylrifamycin SV]
[1]
  MIC: > 100 µg/mL

## COC1C=COC2(C)Oc3c(C)c(O)c4c(O)c(c(C=NNc5cc(-c6ccccc6)nc6cc(C(F)(F)F)ccc56)c(O)c4c3C2=O)NC(=O)C(C)=CC=CC(C)C(O)C(C)C(O)C(C)C(OC(C)=O)C1C (stereo not shown) [Example 23]
[1]
  MIC: 20 µg/mL (≈ 19.8 µM)

## COC1C=COC2(C)Oc3c(C)c(O)c4c(O)c(c(C=NNc5ccc(C(=O)O)cc5)c(O)c4c3C2=O)NC(=O)C(C)=CC=CC(C)C(O)C(C)C(O)C(C)C(OC(C)=O)C1C (stereo not shown) [p-Carboxyphenylhydrazone of 3-formylrifamycin SV]
[1]
  MIC: > 100 µg/mL

## CO[C@H]1/C=C/O[C@@]2(C)Oc3c(C)c(O)c4c(O)c(cc(O)c4c3C2=O)NC(=O)/C(C)=C\C=C\[C@H](C)[C@H](O)[C@@H](C)[C@@H](O)[C@@H](C)[C@H](OC(C)=O)[C@@H]1C [rifamycin SV]
[2]; 5μg
  % Control Activity of ME-DNA-P1 at 5μg: 91%
[2]
  % Control Activity of ME-DNA-P1 at 10μg: 95%
  % Control Activity of ME-DNA-P1 at 100μg: 105%
[3]; 5μg
  % Control Activity of ME-DNA-P2 at 5μg: 94%
[3]
  % Control Activity of ME-DNA-P2 at 10μg: 100%
  % Control Activity of ME-DNA-P2 at 100μg: 72%
[4]; 5μg, read-out: % Control Activity of ME-RNA-P2 at 5μg
  remaining activity at 5 µg: 89%
[4]
  remaining activity at 10 µg: 87%
  remaining activity at 100 µg: 82%
[5]
  % Control Activity of SSV-DNA-P at 5μg: 105%
  % Control Activity of SSV-DNA-P at 10μg: 75%
  % Control Activity of SSV-DNA-P at 100μg: 61%
[6]
  remaining activity at 10 µg: 84%
  remaining activity at 100 µg: 106%

## COC1C=COC2(C)Oc3c(C)c(O)c4c(O)c(c(C=NNC5CCCC5)c(O)c4c3C2=O)NC(=O)C(C)=CC=CC(C)C(O)C(C)C(O)C(C)C(OC(C)=O)C1C (stereo not shown) [Example 1]
[1]
  MIC: 20 µg/mL (≈ 24.8 µM)

## COC1C=COC2(C)Oc3c(C)c(O)c4c(O)c(cc(OCC(=O)O)c4c3C2=O)NC(=O)C(C)=CC=CC(C)C(O)C(C)C(O)C(C)C(OC(C)=O)C1C (stereo not shown) [rifamycin B]
[2]
  % Control Activity of ME-DNA-P1 at 10μg: 103%
  % Control Activity of ME-DNA-P1 at 100μg: 81%
[3]
  % Control Activity of ME-DNA-P2 at 10μg: 46%
  % Control Activity of ME-DNA-P2 at 100μg: 4%
[4]
  remaining activity at 10 µg: 102%
  remaining activity at 100 µg: 95%
[5]
  % Control Activity of SSV-DNA-P at 5μg: 96%
  % Control Activity of SSV-DNA-P at 10μg: 104%
  % Control Activity of SSV-DNA-P at 100μg: 75%
[6]
  remaining activity at 10 µg: 76%
  remaining activity at 100 µg: 85%

## COc1ccccc1NN=Cc1c2c(O)c3c(O)c(C)c4c(c3c1O)C(=O)C(C)(OC=CC(OC)C(C)C(OC(C)=O)C(C)C(O)C(C)C(O)C(C)C=CC=C(C)C(=O)N2)O4 (stereo not shown) [Example 33]
[1]
  MIC: 50 µg/mL (≈ 59.1 µM)

## CNN=Cc1c2c(O)c3c(O)c(C)c4c(c3c1O)C(=O)C(C)(OC=CC(OC)C(C)C(OC(C)=O)C(C)C(O)C(C)C(O)C(C)C=CC=C(C)C(=O)N2)O4 (stereo not shown) [N-Methylhydrazone of 3-formylrifamycin SV]
[1]
  MIC: > 100 µg/mL

## COC1C=COC2(C)Oc3c(C)c(O)c4c(O)c(c(C=NNc5c(C)cc(C(C)(C)C)cc5C)c(O)c4c3C2=O)NC(=O)C(C)=CC=CC(C)C(O)C(C)C(O)C(C)C(OC(C)=O)C1C (stereo not shown) [Example 41]
[1]
  MIC: 20 µg/mL (≈ 22.2 µM)

## CO[C@H]1/C=C/O[C@@]2(C)Oc3c(C)c(O)c4c(c3C2=O)C(=O)C=C(NC(=O)/C(C)=C\C=C\[C@H](C)[C@H](O)[C@@H](C)[C@@H](O)[C@@H](C)[C@H](OC(C)=O)[C@@H]1C)C4=O [rifamycin S]
[2]
  % Control Activity of ME-DNA-P1 at 10μg: 84%
  % Control Activity of ME-DNA-P1 at 100μg: 86%
[3]
  % Control Activity of ME-DNA-P2 at 10μg: 94%
  % Control Activity of ME-DNA-P2 at 100μg: 9%
[4]
  remaining activity at 10 µg: 78%
  remaining activity at 100 µg: 81%
[5]
  % Control Activity of SSV-DNA-P at 5μg: 88%
  % Control Activity of SSV-DNA-P at 10μg: 108%
  % Control Activity of SSV-DNA-P at 100μg: 100%
[6]
  remaining activity at 10 µg: 102%
  remaining activity at 100 µg: 90%

## COC1C=COC2(C)Oc3c(C)c(O)c4c(c3C2=O)C2(C=C(NC(=O)C(C)=CC=CC(C)C(O)C(C)C(O)C(C)C(OC(C)=O)C1C)C4=O)OCC(=O)O2 (stereo not shown) [rifamycin O]
[2]
  % Control Activity of ME-DNA-P1 at 10μg: 92%
  % Control Activity of ME-DNA-P1 at 100μg: 65%
[3]
  % Control Activity of ME-DNA-P2 at 10μg: 97%
  % Control Activity of ME-DNA-P2 at 100μg: 5%
[4]
  remaining activity at 10 µg: 93%
  remaining activity at 100 µg: 65%
[5]
  % Control Activity of SSV-DNA-P at 5μg: 100%
  % Control Activity of SSV-DNA-P at 10μg: 98%
  % Control Activity of SSV-DNA-P at 100μg: 83%
[6]
  remaining activity at 10 µg: 77%
  remaining activity at 100 µg: 75%

## CCCCCN(CCCCC)N=Cc1c2c(O)c3c(O)c(C)c4c(c3c1O)C(=O)C(C)(OC=CC(OC)C(C)C(OC(C)=O)C(C)C(O)C(C)C(O)C(C)C=CC=C(C)C(=O)N2)O4 (stereo not shown) [Example 46]
[1]
  MIC: 1 µg/mL (≈ 1.14 µM)

## COC1C=COC2(C)Oc3c(C)c(O)c4c(O)c(c(C=NNc5cc(C)c6cccc(C)c6n5)c(O)c4c3C2=O)NC(=O)C(C)=CC=CC(C)C(O)C(C)C(O)C(C)C(OC(C)=O)C1C (stereo not shown) [Example 25]
[1]
  MIC: 20 µg/mL (≈ 22.3 µM)

## COC1C=COC2(C)Oc3c(C)c(O)c4c(O)c(c(C=NNC56CC7CC(CC(C7)C5)C6)c(O)c4c3C2=O)NC(=O)C(C)=CC=CC(C)C(O)C(C)C(O)C(C)C(OC(C)=O)C1C (stereo not shown) [Example 47]
[1]
  MIC: 5 µg/mL (≈ 5.72 µM)

## COC1C=COC2(C)Oc3c(C)c(O)c4c(O)c(c(C=NNc5cccc(C)c5)c(O)c4c3C2=O)NC(=O)C(C)=CC=CC(C)C(O)C(C)C(O)C(C)C(OC(C)=O)C1C (stereo not shown) [Example 26]
[1]
  MIC: 20 µg/mL (≈ 24.1 µM)

## COC1C=COC2(C)Oc3c(C)c(O)c4c(O)c(c(C=NN(C)Cc5ccc(-c6ccccc6)cc5)c(O)c4c3C2=O)NC(=O)C(C)=CC=CC(C)C(O)C(C)C(O)C(C)C(OC(C)=O)C1C (stereo not shown) [Example 42]
[1]
  MIC: 5 µg/mL (≈ 5.43 µM)

## COC1C=COC2(C)Oc3c(C)c(O)c4c(O)c(c(C=NNc5c(Cl)cc(Cl)cc5Cl)c(O)c4c3C2=O)NC(=O)C(C)=CC=CC(C)C(O)C(C)C(O)C(C)C(OC(C)=O)C1C (stereo not shown) [Example 39]
[1]
  MIC: 5 µg/mL (≈ 5.44 µM)

## COC1C=COC2(C)Oc3c(C)c(O)c4c(O)c(c(C=NNc5ccc(F)cc5)c(O)c4c3C2=O)NC(=O)C(C)=CC=CC(C)C(O)C(C)C(O)C(C)C(OC(C)=O)C1C (stereo not shown) [Example 37]
[1]
  MIC: 50 µg/mL (≈ 60 µM)

## COC1C=COC2(C)Oc3c(C)c(O)c4c(O)c(c(C=NNc5ccccc5[N+](=O)[O-])c(O)c4c3C2=O)NC(=O)C(C)=CC=CC(C)C(O)C(C)C(O)C(C)C(OC(C)=O)C1C (stereo not shown) [Example 35]
[1]
  MIC: 20 µg/mL (≈ 23.2 µM)

## COC1C=COC2(C)Oc3c(C)c(O)c4c(O)c(c(C=NNC5CCCCC5)c(O)c4c3C2=O)NC(=O)C(C)=CC=CC(C)C(O)C(C)C(O)C(C)C(OC(C)=O)C1C (stereo not shown) [Example 2]
[1]
  MIC: 20 µg/mL (≈ 24.3 µM)

## COC1C=COC2(C)Oc3c(C)c(O)c4c(O)c(c(C=NNCCOc5c(Cl)cc(N)cc5Cl)c(O)c4c3C2=O)NC(=O)C(C)=CC=CC(C)C(O)C(C)C(O)C(C)C(OC(C)=O)C1C (stereo not shown) [Example 34]
[1]
  MIC: 50 µg/mL (≈ 53 µM)

## COC1C=COC2(C)Oc3c(C)c(O)c4c(O)c(c(C=NNc5cccc([N+](=O)[O-])c5)c(O)c4c3C2=O)NC(=O)C(C)=CC=CC(C)C(O)C(C)C(O)C(C)C(OC(C)=O)C1C (stereo not shown) [Example 36]
[1]
  MIC: 50 µg/mL (≈ 58.1 µM)

## COC1C=COC2(C)Oc3c(C)c(O)c4c(O)c(c(C=NNc5ccccc5)c(O)c4c3C2=O)NC(=O)C(C)=CC=CC(C)C(O)C(C)C(O)C(C)C(OC(C)=O)C1C (stereo not shown) [Phenylhydrazone of 3-formylrifamycin SV]
[1]
  MIC: 100 µg/mL (≈ 123 µM)

## CCCCCN(C)N=Cc1c2c(O)c3c(O)c(C)c4c(c3c1O)C(=O)C(C)(OC=CC(OC)C(C)C(OC(C)=O)C(C)C(O)C(C)C(O)C(C)C=CC=C(C)C(=O)N2)O4 (stereo not shown) [Example 3]
[1]
  MIC: 10 µg/mL (≈ 12.1 µM)
